Activity calls are given as the source filed them.
Experiments:
Streptococcus [1] = test: GAS UMAA2166 growth inhibition – luminescence, BacTiterGlo, counter-screen for streptokinase expression inhibitor project, dose response (AID 1915); assay type: functional, organism-based;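 further: potency for reduction of bacterial viability or growth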
[2] = tested on: Streptococcus sp. 'group A'; test: Streptococcus pyogenes SK(-)GAS viability under kanamycin – luminescence, BacTiterGlo, confirmation, counter-screen for streptokinase expression inhibitor project, dose response (AID 1900); assay type: functional, organism-based
Streptococcus [3] = test: Luminescence Microorganism-Based Dose Response Follow up to Identify Compounds Cytotoxic to Streptococcus. [Related pubchem assays: 1677 (Project Summary), 1915, 1914, 1902 (Retest at Dose), 1900 (Counter Screen), 1662 (Primary HTS)]; assay type: functional, organism-based
Streptokinase A = biological target: T1, Streptokinase A (Streptococcus pyogenes serotype M1, UniProt P10520); test: viability-normalized secreted streptokinase activity reduction – plasminogen activation absorbance, OD405, dose response (AID 1914); assay type: functional, Streptococcus pyogenes M1 GAS;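 further: secreted streptokinase activity via plasminogen activation per viability signal from cell pellet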
T1 sequence (P10520 whole entry): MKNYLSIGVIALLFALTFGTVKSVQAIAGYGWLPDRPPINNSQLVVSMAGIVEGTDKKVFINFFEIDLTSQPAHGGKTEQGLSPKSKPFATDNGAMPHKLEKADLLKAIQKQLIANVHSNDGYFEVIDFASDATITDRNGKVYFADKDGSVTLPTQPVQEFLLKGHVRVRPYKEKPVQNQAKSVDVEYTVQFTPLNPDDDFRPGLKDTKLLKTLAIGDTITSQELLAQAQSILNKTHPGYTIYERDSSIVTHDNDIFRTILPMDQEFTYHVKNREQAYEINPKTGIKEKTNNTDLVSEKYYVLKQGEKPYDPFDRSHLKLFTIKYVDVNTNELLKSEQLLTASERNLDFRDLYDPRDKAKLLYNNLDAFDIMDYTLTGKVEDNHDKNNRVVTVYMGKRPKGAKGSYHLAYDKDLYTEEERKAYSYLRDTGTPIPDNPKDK

[4] = A2780 cell killing – plate reader, dry powder samples, cytotoxicity control, dose response (AID 743046); assay type: functional, cell-based
cells = assay type: functional, cell-based
[5] = HEK-293T viability loss after treatment – luminescence, T-cell screen hits, cytotoxicity control for TCR NF-kB inhibitor project, dose response (AID 489026); assay type: functional, cell-based;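 further: cells exposed to compound about 14 hours before the viability readout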
[6] = alpha-synuclein stem-loop luciferase translation blockers – H4 neuroglioma cells, luminescence, confirmation (AID 1988); assay type: functional, cell-based
[7] = toxicity toward immortalized ovarian surface epithelium – cell-based, plate reader, dry powder samples, cytotoxicity control for PAX8 inhibitor project, dose response (AID 743045); assay type: functional
[8] = IGROV1 cell killing – plate reader, dry powder samples, PAX8 inhibitor project, dose response (AID 743043); assay type: functional, cell-based; conditions: IGROV-1
Cysteine protease ATG4B = biological target: T2, Cysteine protease ATG4B (Homo sapiens, UniProt Q9Y4P1); test: autophagin-1 cysteine protease inhibition – biochemical, fluorescence, set 2, dose response (AID 588584); assay type: functional
T2 sequence (Q9Y4P1 whole entry): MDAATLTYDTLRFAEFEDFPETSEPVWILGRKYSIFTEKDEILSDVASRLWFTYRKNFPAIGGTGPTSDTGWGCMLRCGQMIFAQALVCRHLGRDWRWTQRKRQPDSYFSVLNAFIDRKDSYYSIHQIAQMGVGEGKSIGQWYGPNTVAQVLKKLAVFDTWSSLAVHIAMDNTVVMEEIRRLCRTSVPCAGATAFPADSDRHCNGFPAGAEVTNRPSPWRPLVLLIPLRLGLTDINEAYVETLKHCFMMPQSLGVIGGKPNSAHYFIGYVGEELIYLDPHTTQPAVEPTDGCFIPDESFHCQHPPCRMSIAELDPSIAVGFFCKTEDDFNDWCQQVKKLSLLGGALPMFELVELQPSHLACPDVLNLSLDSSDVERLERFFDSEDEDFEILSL

[9] = OV-90 cell viability loss – plate reader, dry powder, SA8, PAX8 inhibitor project, dose response (AID 743149); assay type: functional, cell-based
BJ [10] = test: cells; assay type: functional, cell-based; conditions: Homo sapiens
Phospholipase A2 = Phospholipase A2 (Homo sapiens, UniProt P04054); test: phospholipase A2 activity inhibition – biochemical, set 2, counter-screen for ATG4B inhibitor project, dose response (AID 588586); assay type: functional
[11] = inhibitors acting on PAX2 in cells – cell-based, plate reader, dry powder samples, selectivity assay for PAX8 inhibitor project, dose response (AID 743048); assay type: functional;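 further: HEK293 cells carrying a WT1 promoter luciferase reporter driven by expressed Pax2; potency is for inhibition of Pax2 driven reporter signal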
[12] = PAX5 cellular inhibition readout – cell-based, plate reader, dry powder samples, selectivity assay for PAX8 inhibitor project, dose response (AID 743047); assay type: functional;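 further: HEK293 cells carrying a Pax5 driven CD19 promoter luciferase reporter; potency of inhibitors that lower reporter luminescence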
[13] = OVCAR-3 cell viability loss – plate reader, dry powder samples, PAX8 inhibitor project, dose response (AID 743044); assay type: functional, cell-based
Paired box protein Pax-8 = Paired box protein Pax-8 (Homo sapiens, UniProt Q06710); test: PAX8 transcriptional activity inhibition in RMG-I – RMG-I cells, luciferase, cherry-pick, dose response (AID 687027); assay type: functional, cell-based;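 further: luciferase reporter driven by Pax8 target thyroperoxidase promoter measured by SteadyGlo luminescence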
BJ [14] = test: BJ-TERT fibroblast viability loss – cell-based, RAS-independent, luminescence, dose response (AID 1933); assay type: functional; conditions: Homo sapiens
BJ [15] = test: BJ-TERT-LT-ST fibroblast viability loss – cell-based, RAS-independent, luminescence, dose response (AID 1935); assay type: functional; conditions: Homo sapiens;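 further: BJ fibroblasts immortalized with TERT plus LT and ST oncogenes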
[16] = luciferase reporter signal reduction – luminescence, H4-C neuroglioblastoma cells, dose response (AID 2458); assay type: functional, cell-based;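 further: H4 neuroglioblastoma cells stably carrying a luciferase reporter gene fusion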
[17] = COV434 cell viability loss – plate reader, dry powder, SA7, cytotoxicity control for PAX8 inhibitor project, dose response (AID 743145); assay type: functional, cell-based
[18] = alpha-synuclein stem-loop translation blockers – luminescence, H4 neuroglioblastoma cells, dose confirmation, confirmation (AID 2454); assay type: functional, cell-based;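 further: H4 neuroglioblastoma cells carrying an alpha-synuclein 5'UTR luciferase reporter; potency for inhibition of the luciferase signal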
[19] = Luminescence-based dose response cell-based high throughput screening assay for cytotoxic compounds using the IEC-6 intestinal epithelial cell line. [Related pubchem assays: 1858 (Summary AID.), 1825 (Counterscreen.), 1907 (Confirmation screen.)]; assay type: functional
[20] = PAX8-dependent cell viability loss – plate reader, dry powder, dose response (AID 743049); assay type: functional, cell-based
[21] = DRD fibroblast viability loss – cell-based, non-viral oncogenic, luminescence, dose response (AID 1934); assay type: functional; conditions: Homo sapiens
[22] = COV362 cell viability loss – plate reader, dry powder, SA12, cytotoxicity control for PAX8 inhibitor project, dose response (AID 743144); assay type: functional, cell-based
[23] = OVCAR4 cell viability loss – plate reader, dry powder, SA11, cytotoxicity control for PAX8 inhibitor project, dose response (AID 743150); assay type: functional, cell-based; conditions: OVCAR-4
[24] = biological target: Melanin-concentrating hormone receptor 1 (Homo sapiens, UniProt Q99705); test: Late-stage fluorescence-based counterscreen for antagonists of the G-protein coupled receptor 7 (GPR7): cell-based dose response assay to identify antagonists of the melanin-concentrating hormone receptor 1 (MCHR1). [Related pubchem assays (depositor defined):AID1861, AID1880, AID1952, AID2148, AID2251, AID2257, AID485339]; assay type: functional;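 further: stimulated with 30 nM MCH peptide agonist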
[25] = biological target: T3, Neuropeptides B/W receptor type 1 (Homo sapiens, UniProt P48145); test: human NPBW1 receptor blockade, IC50 – cell-based, fluorescence, dose response, late-stage follow-up (AID 463251); assay type: functional
T3 sequence (P48145 whole entry): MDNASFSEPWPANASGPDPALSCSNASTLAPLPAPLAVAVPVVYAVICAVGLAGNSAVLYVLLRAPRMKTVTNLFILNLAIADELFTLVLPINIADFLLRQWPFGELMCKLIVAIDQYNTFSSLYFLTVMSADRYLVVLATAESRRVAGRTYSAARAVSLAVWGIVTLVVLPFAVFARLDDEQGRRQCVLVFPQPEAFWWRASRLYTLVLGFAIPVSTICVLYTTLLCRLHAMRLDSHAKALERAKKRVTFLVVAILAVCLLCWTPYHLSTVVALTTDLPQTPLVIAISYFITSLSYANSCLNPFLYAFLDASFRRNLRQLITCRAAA

[26] = biological target: NACHT, LRR and PYD domains-containing protein 3 (Homo sapiens, UniProt Q96P20); test: NALP3 inhibitors in yeast, dose response, luminescent (AID 488799); assay type: functional
NACHT, LRR and PYD domains-containing protein 3, sequence (Q96P20 whole entry, the tested form may be a part): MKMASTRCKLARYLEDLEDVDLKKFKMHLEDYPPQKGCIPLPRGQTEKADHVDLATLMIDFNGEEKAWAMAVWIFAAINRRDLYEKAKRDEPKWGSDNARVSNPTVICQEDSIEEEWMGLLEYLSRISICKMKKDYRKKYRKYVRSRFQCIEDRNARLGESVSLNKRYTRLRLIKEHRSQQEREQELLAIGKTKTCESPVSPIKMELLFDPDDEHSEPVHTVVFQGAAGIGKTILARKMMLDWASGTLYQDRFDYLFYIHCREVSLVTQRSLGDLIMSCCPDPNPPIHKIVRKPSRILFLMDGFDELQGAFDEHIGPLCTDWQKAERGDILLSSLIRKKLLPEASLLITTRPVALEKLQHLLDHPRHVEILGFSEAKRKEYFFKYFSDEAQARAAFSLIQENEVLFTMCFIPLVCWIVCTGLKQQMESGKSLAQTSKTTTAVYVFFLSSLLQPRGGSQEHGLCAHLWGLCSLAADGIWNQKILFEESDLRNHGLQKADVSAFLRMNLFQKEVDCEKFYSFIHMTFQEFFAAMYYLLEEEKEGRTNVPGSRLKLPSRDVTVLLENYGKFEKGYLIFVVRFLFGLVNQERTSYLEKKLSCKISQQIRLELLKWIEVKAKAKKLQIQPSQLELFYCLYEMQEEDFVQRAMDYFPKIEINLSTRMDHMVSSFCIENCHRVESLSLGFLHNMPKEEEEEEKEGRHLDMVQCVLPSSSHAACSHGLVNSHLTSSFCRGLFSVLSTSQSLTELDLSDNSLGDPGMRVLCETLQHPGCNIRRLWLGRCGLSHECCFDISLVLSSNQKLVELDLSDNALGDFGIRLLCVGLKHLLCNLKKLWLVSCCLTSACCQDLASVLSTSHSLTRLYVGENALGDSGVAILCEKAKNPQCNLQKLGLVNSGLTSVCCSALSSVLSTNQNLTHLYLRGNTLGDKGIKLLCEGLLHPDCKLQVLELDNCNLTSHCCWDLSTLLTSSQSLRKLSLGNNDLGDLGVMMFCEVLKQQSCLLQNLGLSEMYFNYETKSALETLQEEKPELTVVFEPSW

Melanin-concentrating hormone receptor 1, sequence (Q99705 whole entry): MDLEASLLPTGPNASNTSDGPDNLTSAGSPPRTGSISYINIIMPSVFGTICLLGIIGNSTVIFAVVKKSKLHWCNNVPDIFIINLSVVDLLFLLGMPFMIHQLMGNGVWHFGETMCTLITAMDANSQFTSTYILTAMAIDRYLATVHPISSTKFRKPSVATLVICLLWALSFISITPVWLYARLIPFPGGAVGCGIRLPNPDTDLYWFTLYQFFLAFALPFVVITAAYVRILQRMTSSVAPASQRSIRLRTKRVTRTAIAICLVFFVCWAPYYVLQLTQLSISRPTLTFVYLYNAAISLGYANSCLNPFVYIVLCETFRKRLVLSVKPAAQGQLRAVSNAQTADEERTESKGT
Paired box protein Pax-8, sequence (Q06710 whole entry): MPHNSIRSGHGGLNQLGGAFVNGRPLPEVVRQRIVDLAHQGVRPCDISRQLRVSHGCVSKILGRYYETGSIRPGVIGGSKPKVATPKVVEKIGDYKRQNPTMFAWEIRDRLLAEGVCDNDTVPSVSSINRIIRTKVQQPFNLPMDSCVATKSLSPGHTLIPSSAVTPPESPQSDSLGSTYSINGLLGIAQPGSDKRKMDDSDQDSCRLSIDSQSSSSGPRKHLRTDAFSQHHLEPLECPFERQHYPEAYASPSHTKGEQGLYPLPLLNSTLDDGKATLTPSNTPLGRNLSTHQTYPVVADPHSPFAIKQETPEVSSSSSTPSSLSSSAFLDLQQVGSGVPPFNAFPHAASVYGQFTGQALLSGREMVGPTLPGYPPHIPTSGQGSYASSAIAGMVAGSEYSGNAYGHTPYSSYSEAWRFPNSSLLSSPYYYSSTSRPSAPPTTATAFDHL
Phospholipase A2, sequence (P04054 whole entry): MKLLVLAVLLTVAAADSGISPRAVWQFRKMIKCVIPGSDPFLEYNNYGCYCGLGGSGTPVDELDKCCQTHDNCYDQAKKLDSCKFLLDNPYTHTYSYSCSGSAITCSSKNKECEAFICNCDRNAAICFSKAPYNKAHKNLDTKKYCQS

Q: Which results are given for `FC(F)(F)c1cc(-c2ccco2)nc(NCc2ccc(Cl)cc2)n1`?
A: EC50 (Streptococcus [1]): > 150000 nM (not active); EC50 [2]: 8270 nM (active); EC50 (Streptococcus [3]): 9490 nM (active); EC50 (Streptokinase A): 9320 nM (active)

Q: Which AC50 [4] does the source give for `CCCC1=Nc2cc(C(=O)NCCCOCC)ccc2Sc2ccccc21` here?
A: 5660 nM (active)

Q: What about the EC50 (cells) of the same molecule?
A: 985 nM (active)

Q: And the IC50 [5]?
A: > 80000 nM (inactive)

Q: What about the EC50 [6] of the same molecule?
A: < 100 nM (active)

Q: What about the AC50 [7] of the same molecule?
A: 1220 nM (active)

Q: What about the AC50 [8] of the same molecule?
A: 7990 nM (active)

Q: And the IC50 (Cysteine protease ATG4B)?
A: 49000 nM (inactive)

Q: And the AC50 [9]?
A: 1360 nM (active)

Q: And the EC50 (BJ [10])?
A: 863 nM (inconclusive)

Q: What about the IC50 (Phospholipase A2) of the same molecule?
A: 48900 nM (inactive)

Q: And the AC50 [11]?
A: 64000 nM (active)

Q: And the AC50 [12]?
A: 1480 nM (active)

Q: And the AC50 [13]?
A: 5370 nM (active)

Q: What about the AC50 (Paired box protein Pax-8) of the same molecule?
A: 1740 nM (active)

Q: And the EC50 (BJ [14])?
A: 586 nM (inconclusive)

Q: And the EC50 (BJ [15])?
A: 607 nM (inconclusive)

Q: And the EC50 [16]?
A: 592 nM (active)

Q: What about the AC50 [17] of the same molecule?
A: 1300 nM (active)

Q: What about the EC50 [18] of the same molecule?
A: 836 nM (active)

Q: And the IC50 [19]?
A: 389 nM (active)

Q: And the AC50 [20]?
A: 7230 nM (active)

Q: And the EC50 [21]?
A: 740 nM (inconclusive)

Q: What about the AC50 [22] of the same molecule?
A: 1420 nM (active)

Q: And the AC50 [23]?
A: 885 nM (active)

Q: For `Cc1ccc(-n2ncc(Cl)c(Oc3ccc(OC(F)(F)F)cc3)c2=O)cc1`, which IC50 [24] is on record?
A: 2900 nM (active)

Q: What about the IC50 [25] of the same molecule?
A: 880 nM (active)

Q: For `O=C(NCCCc1ccccc1)c1c(O)nc2sccn2c1=O`, which IC50 [26] is on record?
A: 9610 nM (active)

— ChEMBL document CHEMBL1201862, “PubChem BioAssay data set” (2004)
